In the oligonucleotide strings, read from the 5' end, every base follows the letter of its sugar. An asterisk marks phosphorothioate; unmarked linkages are phosphodiester. Other units and linkages are bracketed, terminal groups are in braces. A string of capitals states the bases alone. d = 2'-deoxy (DNA); m = 2'-O-methyl; r = 2'-OH (RNA)
Test system: PCSK9 mRNA
Assay: PCSK9 siRNA screening in HepG2 cells (lipofectamine 2000 transfection, PCSK9 mRNA by Quantigene, normalized to GAP-DH)
Type: cell-based, human
Details: for Mean percent remaining mRNA transcript at siRNA concentration/in cell type 30 nM/HepG2: 30 nM siRNA; for Mean percent remaining mRNA transcript at siRNA concentration/in cell type 100 nM/HepG2: 100 nM siRNA; for Mean percent remaining mRNA transcript at siRNA concentration/in cell type 3 nM/HepG2: 3 nM siRNA
Method in brief: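 PCSK9 silencing was assessed in HepG2 cells by lipofectamine 2000 siRNA transfection in 96-well plates. Twenty-four hours later, lysates were analyzed with the Quantigene Explore Kit, with PCSK9 signal normalized to GAP-DH. Eight datapoints were collected per siRNA, and remaining transcript was expressed as a percentage of cells treated with an unrelated control siRNA duplex.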

| Substance | Mean percent remaining mRNA transcript at siRNA concentration/in cell type 30 nM/HepG2 [%] | Mean percent remaining mRNA transcript at siRNA concentration/in cell type 100 nM/HepG2 [%] | IC50 [nM] | Mean percent remaining mRNA transcript at siRNA concentration/in cell type 3 nM/HepG2 [%] |
| --- | --- | --- | --- | --- |
| AD-9619: PCSK9 siRNA (sense rUrCrArGrGrArGrCrCrGrGrGrArCrGrUrCrArGdT*dT; antisense rCrUrGrArCrGrUrCrCrCrGrGrCrUrCrCrUrGrAdT*dT) | 61 | 42 | – | – |
| AD-9531: PCSK9 siRNA (sense rArArArUrCrGrArGrGrGrCrArGrGrGrUrCrArUdT*dT; antisense rArUrGrArCrCrCrUrGrCrCrCrUrCrGrArUrUrUdT*dT) | 31 | – | 0.53 | 32 |
| AD-9623: PCSK9 siRNA (sense rGrUrCrArGrCrUrCrCrArGrGrCrGrGrUrCrCrUdT*dT; antisense rArGrGrArCrCrGrCrCrUrGrGrArGrCrUrGrArCdT*dT) | 66 | 43 | – | – |
| AD-9652: PCSK9 siRNA (sense mUmCmCmCrArGmCmCrArGrGrAmUmUmCmCrGmCrGdT*dT; antisense rCrGrCrGrGrArArUrCrCrUrGrGrCrUrGrGrGrAdT*dT) | 97 | – | – | – |
| AD-9636: PCSK9 siRNA (sense rCrArUrArCrArGrArGrUrGrArCrCrArCrCrGrGdT*dT; antisense rCrCrGrGrUrGrGrUrCrArCrUrCrUrGrUrArUrGdT*dT) | 42 | – | 2.1 | 41 |
| AD-9649: PCSK9 siRNA (sense mCrArGmCmCrArGrGrAmUmUmCmCrGmCrGmCrGmCdT*dT; antisense rGrCrGrCrGrCrGrGrArArUrCrCrUrGrGrCrUrGdT*dT) | 60 | – | – | – |
| AD-9533: PCSK9 siRNA (sense rGrArCrCrArCrCrGrGrGrArArArUrCrGrArGrGdT*dT; antisense rCrCrUrCrGrArUrUrUrCrCrCrGrGrUrGrGrUrCdT*dT) | 100 | – | – | – |
| AD-9587: PCSK9 siRNA (sense rArCrArUrUrUrArUrCrUrUrUrUrGrGrGrUrCrUdT*dT; antisense rArGrArCrCrCrArArArArGrArUrArArArUrGrUdT*dT) | 63 | – | – | 49 |
| AD-9650: PCSK9 siRNA (sense rGmCmUrGrGmUrGmCmUrArGmCmCmUmUrGmCrGmUdT*dT; antisense rArCrGmCrArArGrGrCmUrArGmCrArCmCrArGrCdT*dT) | 91 | – | – | 90 |
| AD-9582: PCSK9 siRNA (sense rCrCrArGrCrArUrCrCrArCrGrCrUrUrCrCrUrGdT*dT; antisense rCrArGrGrArArGrCrGrUrGrGrArUrGrCrUrGrGdT*dT) | 37 | – | – | – |
| AD-9627: PCSK9 siRNA (sense rArGrArGrArCrUrGrArUrCrCrArCrUrUrCrUrCdT*dT; antisense rGrArGrArArGrUrGrGrArUrCrArGrUrCrUrCrUdT*dT) | 69 | – | – | – |
| AD-9678: PCSK9 siRNA (sense rArGrGrArGmCrAmUrGrGrArAmUmCmCmCrGrGmCdT*dT; antisense rGrCrCrGrGrGrArUrUrCmCrArUrGrCrUrCrCrUdT*dT) | 76 | – | – | – |
| AD-9515: PCSK9 siRNA (sense rGrGrUrArCrCrGrGrGrCrGrGrArUrGrArArUrAdT*dT; antisense rUrArUrUrCrArUrCrCrGrCrCrCrGrGrUrArCrCdT*dT) | 49 | – | – | – |
| AD-9668: PCSK9 siRNA (sense rAmUmCrGrArGrGrGmCrArGrGrGmUmCrAmUrGrGdT*dT; antisense rCmCrArUrGrArCrCrCrUrGrCrCrCrUrCrGrArUdT*dT) | 92 | – | – | – |
| AD-9609: PCSK9 siRNA (sense rCrArCrGrGrUrArCrCrGrGrGrCrGrGrArUrGrAdT*dT; antisense rUrCrArUrCrCrGrCrCrCrGrGrUrArCrCrGrUrGdT*dT) | 71 | 66 | – | – |
| AD-9324: PCSK9 siRNA (sense rGrCrCrArUrCrUrGrCrUrGrCrCrGrGrArGrCrCdT*dT; antisense rGrGrCrUrCrCrGrGrCrArGrCrArGrArUrGrGrCdT*dT) | 59 | – | – | 67 |
| AD-9565: PCSK9 siRNA (sense rUrArCrUrCrUrGrCrUrCrUrArUrGrCrCrArGrGdT*dT; antisense rCrCrUrGrGrCrArUrArGrArGrCrArGrArGrUrAdT*dT) | 74 | – | – | – |

| Substance | Mean percent remaining mRNA transcript at siRNA concentration/in cell type 30 nM/HepG2 [%] | Mean percent remaining mRNA transcript at siRNA concentration/in cell type 100 nM/HepG2 [%] | IC50 [nM] | Mean percent remaining mRNA transcript at siRNA concentration/in cell type 3 nM/HepG2 [%] |
| --- | --- | --- | --- | --- |
| AD-9589: PCSK9 siRNA (sense rCrArCrCrGrCrUrGrCrCrGrGrCrArArCrUrUrCdT*dT; antisense rGrArArGrUrUrGrCrCrGrGrCrArGrCrGrGrUrGdT*dT) | 85 | 67 | – | – |
| AD-9570: PCSK9 siRNA (sense rCrUrGrCrCrGrGrGrCrCrCrArCrArArCrGrCrUdT*dT; antisense rArGrCrGrUrUrGrUrGrGrGrCrCrCrGrGrCrArGdT*dT) | 42 | 35 | – | – |
| AD-9610: PCSK9 siRNA (sense rArGrGrUrGrUrArUrCrUrCrCrUrArGrArCrArCdT*dT; antisense rGrUrGrUrCrUrArGrGrArGrArUrArCrArCrCrUdT*dT) | 36 | – | 0.04 | 34 |
| AD-9527: PCSK9 siRNA (sense rGrCrCrArArCrCrCrGrCrUrCrCrArCrUrArCrCdT*dT; antisense rGrGrUrArGrUrGrGrArGrCrGrGrGrUrUrGrGrCdT*dT) | 45 | – | – | – |
| AD-9747: PCSK9 siRNA (sense mUmCmUrGrGrAmUrGrGmCrAmUmCmUrArGmCmCrAdT*dT; antisense rUrGrGrCmUrArGrArUrGrCmCrArUrCmCrArGrAdT*dT) | 63 | – | – | – |
| AD-9608: PCSK9 siRNA (sense rUrGrCrUrArGrCrCrUrUrGrCrGrUrUrCrCrGrAdT*dT; antisense rUrCrGrGrArArCrGrCrArArGrGrCrUrArGrCrAdT*dT) | 37 | – | – | – |
| AD-9530: PCSK9 siRNA (sense rArCrCrGrGrGrCrGrGrArUrGrArArUrArCrCrAdT*dT; antisense rUrGrGrUrArUrUrCrArUrCrCrGrCrCrCrGrGrUdT*dT) | 75 | – | – | – |
| AD-9673: PCSK9 siRNA (sense mCmUmCrGmCrArGmUmCrArGrArGmCrGmCrAmCmUdT*dT; antisense rArGrUrGrCrGrCrUrCrUrGrArCrUrGrCrGrArGdT*dT) | 56 | – | – | 57 |
| AD-9651: PCSK9 siRNA (sense rGrGrArGmUmUmUrAmUmUmCrGrGrArArArArGmCdT*dT; antisense rGrCrUrUrUrUrCrCrGrArAmUrArArArCrUrCrCdT*dT) | 58 | – | – | – |
| AD-9569: PCSK9 siRNA (sense rArGrCrUrCrCrUrGrCrArCrArGrUrCrCrUrCrCdT*dT; antisense rGrGrArGrGrArCrUrGrUrGrCrArGrGrArGrCrUdT*dT) | 112 | – | – | – |
| AD-9618: PCSK9 siRNA (sense rGrArGrCrArUrGrGrArArUrCrCrCrGrGrCrCrCdT*dT; antisense rGrGrGrCrCrGrGrGrArUrUrCrCrArUrGrCrUrCdT*dT) | 90 | – | – | – |
| AD-9721: PCSK9 siRNA (sense mCmUrGrArGrGrAmCmCrArGmCrGrGrGmUrAmCmUdT*dT; antisense rArGmUrArCrCrCrGrCrUrGrGrUrCrCrUmCrArGdT*dT) | 87 | – | – | 70 |
| AD-9559: PCSK9 siRNA (sense rGrUrGrArCrCrArCrCrGrGrGrArArArUrCrGrAdT*dT; antisense rUrCrGrArUrUrUrCrCrCrGrGrUrGrGrUrCrArCdT*dT) | 35 | – | – | – |
| AD-9571: PCSK9 siRNA (sense rGrCrCrArGrGrUrGrCrUrGrCrCrUrGrCrUrArCdT*dT; antisense rGrUrArGrCrArGrGrCrArGrCrArCrCrUrGrGrCdT*dT) | 27 | – | – | 32 |
| AD-9593: PCSK9 siRNA (sense rCrArGrGrGrUrCrArUrGrGrUrCrArCrCrGrArCdT*dT; antisense rGrUrCrGrGrUrGrArCrCrArUrGrArCrCrCrUrGdT*dT) | 55 | – | – | – |
| AD-9742: PCSK9 siRNA (sense rArGmCrAmCmCmUrGmCmUmUmUrGmUrGmUmCrAmCdT*dT; antisense rGrUrGrAmCrAmCrArArArGmCrArGrGrUrGrCrUdT*dT) | 127 | – | – | – |

Source: patent US20120016009A1, “Optimized Methods For Delivery Of DSRNA Targeting The PCSK9 Gene” (priority 2008, published 2012)
